# Assay results: the NIST ThermoML archive (doi:10.1021/acs.jced.8b01165)
# Numbers after ± are expanded uncertainties.
# Columns and labels:
# [1] = Molar enthalpy of transition or fusion; settings: Crystal; DSC
# [2] = Crystal; DSC
structure (smiles),measurement,setting,value
C=C(C)C1Cc2c(ccc3c2OC2COc4cc(OC)c(OC)cc4C2C3=O)O1 (configuration not stated),Molar enthalpy of transition or fusion,[1],28.5 ± 0.85 kJ/mol
same,Triple point temperature,[2],435.89 ± 1 K
